Columns and labels:
[1] = biological target: Sphingosine 1-phosphate receptor 1 (Homo sapiens, UniProt P21453); experiment: S1P1 Binding Assay: Membranes were prepared from CHO cells expressing human S1P1. Cells pellets (1×10^9 cells/pellet) were suspended in buffer containing 20 mM HEPES (4-(2-hydroxyethyl)-1-piperazineethanesulfonic acid), pH 7.5, 50 mM NaCl, 2 mM EDTA (Ethylenediamine tetraacetic acid) and Protease Inhibitor cocktail (Roche), and disrupted on ice using the Polytron homogenizer. The homogenate was centrifuged at 20,000 rpm (48,000 g) and the supernatant was discarded. The membrane pellets were resuspended in buffer containing 50 mM HEPES, pH 7.5, 100 mM NaCl, 1 mM MgCl2, 2 mM EDTA and stored in aliquots at −80° C. after protein concentration determination.Membranes (2 μg/well) and 0.03 nM final concentration of 33P-S1P ligand (1 mCi/ml, Perkin Elmer or American Radiolabeled Chemicals) diluted in assay buffer (50 mM HEPES, pH7.4, 5 mM MgCl2, 1 mM CaCl2, 0.5% fatty acid free BSA(bovine serum albumin), 1 mM NaF) were added to the compound plates (384 Falcon v-bottom plate (0.5 μl/well in a 11 point, 3-fold dilution). Binding was performed for 45 minutes at room temperature, terminated by collecting the membranes onto 384-well Millipore FB filter plates, and radioactivity was measured by TOPCOUNT®. The competition data of the test compounds over a range of concentrations was plotted as percentage inhibition of radioligand specific binding. […]
[2] = biological target: Sphingosine 1-phosphate receptor 3 (Homo sapiens, UniProt Q99500); experiment: Receptor [35S] GTPgammaS Binding Assays: Compounds were loaded in a 384 Falcon v-bottom plate (0.5 μL/well in a 11 point, 3-fold dilution). Membranes prepared from S1P1/CHO cells or EDG3-Gal5-bla HEK293T cells (EDG3 equivalent S1P3) were added to the compound plate (40 μL/well, final protein 3 μg/well) with MULTIDROP®. [35S]GTP (1250 Ci/mmol, Perkin Elmer) was diluted in assay buffer: 20 mM HEPES, pH7.5, 10 mM MgCl2, 150 mM NaCl, 1 mM EGTA(ethylene glycol tetraacetic acid), 1 mM DTT (dithiothreitol), 10 μM GDP, 0.1% fatty acid free BSA, and 10 μg/ml Saponin to 0.4 nM. 40 μL of the [35S] GTP solution was added to the compound plate with a final concentration of 0.2 nM. The reaction was kept at room temperature for 45 min. At the end of incubation, all the mixtures in the compound plate were transferred to Millipore 384-well FB filter plates via the VELOCITY11® Vprep liquid handler. The filter plate was washed with water 4 times by using the manifold Embla plate washer and dried at 60° C. for 45 min. MicroScint 20 scintillation fluid (30 μL) was added to each well for counting on the Packard TOPCOUNT®. EC50 is defined as the agonist concentration that corresponds to 50% of the Ymax (maximal response) obtained for each individual compound tested.A smaller value for GTPγS S1P1 EC50 value indicated greater activity for the compound in the GTPγS S1P1 binding assay. […]
Sequence of Sphingosine 1-phosphate receptor 3 (Q99500 whole entry): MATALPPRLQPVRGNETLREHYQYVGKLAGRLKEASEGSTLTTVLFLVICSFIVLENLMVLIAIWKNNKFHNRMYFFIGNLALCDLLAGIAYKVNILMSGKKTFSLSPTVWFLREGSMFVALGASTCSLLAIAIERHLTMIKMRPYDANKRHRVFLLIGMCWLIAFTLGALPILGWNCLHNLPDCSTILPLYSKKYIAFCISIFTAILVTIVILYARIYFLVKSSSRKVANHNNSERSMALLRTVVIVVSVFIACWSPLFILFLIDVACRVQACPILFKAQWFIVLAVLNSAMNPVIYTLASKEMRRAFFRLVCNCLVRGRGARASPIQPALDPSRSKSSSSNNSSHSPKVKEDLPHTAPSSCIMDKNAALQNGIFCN

Sequence of Sphingosine 1-phosphate receptor 1 (P21453 whole entry): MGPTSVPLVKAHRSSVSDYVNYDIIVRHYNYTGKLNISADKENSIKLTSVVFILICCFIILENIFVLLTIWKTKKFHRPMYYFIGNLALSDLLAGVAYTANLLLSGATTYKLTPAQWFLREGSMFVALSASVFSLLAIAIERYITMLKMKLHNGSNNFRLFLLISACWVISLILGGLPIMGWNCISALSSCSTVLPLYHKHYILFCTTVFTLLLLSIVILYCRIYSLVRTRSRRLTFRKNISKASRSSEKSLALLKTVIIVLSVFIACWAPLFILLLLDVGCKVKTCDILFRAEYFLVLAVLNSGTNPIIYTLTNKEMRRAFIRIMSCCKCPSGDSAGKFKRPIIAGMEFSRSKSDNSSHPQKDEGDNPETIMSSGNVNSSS

EC50 [1]: 14.4 µM | EC50 [2]: > 60 µM
Compound: CCCCCCCCc1cc(C)c(N2CCC(N)(COP(=O)(O)O)C2=O)c(C)c1 (configuration not stated)

— ChEMBL document CHEMBL5728559, “Alkylphenyl compounds” (2021)
